This note sets out measurements from a melting point compilation (Tetko et al.; mined from patent text by program, amines drawn as free bases though some values may be those of a salt).

Turning to `CC(Oc1cc(Cl)ccc1Cl)C(=O)OCc1ccccc1` (configuration not stated), the melting point was in the range of 56 to 58 °C.

For the molecule `CC1(C)CCC(C)(C)c2cc(S(=O)Cc3ccc(C(=O)O)cc3)ccc21` (configuration not stated), the melting point lay within 198 to 200 °C. For `CCOC(=O)Cc1c(C)n(CCCc2ccccc2)c2cccc(OCc3csc(-c4ccccc4)n3)c12` the value was 90 to 94 °C. For `COc1ccc(S(=O)(=O)Nc2ccccc2NC(=O)c2ccc(F)cc2)cc1` the value was 169 to 170 °C.

Regarding `CN1c2ccccc2C(C)(C)C1CC#N` (configuration not stated), the melting point lay in the range of 74 to 76 °C. The value for `Cc1ccn2c(C)c(-c3ccc4sc(=O)n(C)c4c3)nc2c1` was 204 to 206 °C; that for `O=C1CCc2cc(NCC(=O)N3CCC(Cc4ccc(F)cc4)CC3)ccc2N1` was 197 to 200 °C. The value for `Cc1nnc(Cl)c(-c2c(F)cccc2Cl)c1-c1ccc(Cl)nc1` was 166 to 167 °C. For `COc1cc(OC)nc(NC(=O)NS(=O)(=O)c2c([N+](=O)[O-])ccc3c2CCC3)n1` the value was 162 to 172 °C; for `O=C(NCc1ccc(Cl)cc1)c1cc(Br)c2cccnc2c1O`, 148 to 151 °C; for `CCc1nc2c(N)nc3c(c2n1CCOCCS(C)(=O)=O)CCCC3`, 146 to 148 °C. With `CN1CN(C(=O)c2c(F)cccc2F)C(=O)N(c2ccc(SC(F)F)cc2F)C1`, the melting point fell in the range of 135 to 137 °C. For `COc1ccc(Cn2cc(OCc3ccccc3)c(=O)cc2C(=O)NCCNCc2ccccc2)cc1` the value was 112 °C; for `OC(=S)c1cc(C(F)(F)F)c(Cl)cc1Cl`, 112 to 114 °C; for `Cc1ccnc2ccc(Cc3cnc(N)nc3N)cc12`, 262 to 268 °C. For `CC(=O)c1cc(Cl)sc1S(=O)(=O)Nc1ccc(CCO)cc1` the value was 112 to 116 °C; for `CN(CCCC(C(N)=O)(c1ccccc1)c1ccccc1)CCc1ccccn1`, 134 to 136 °C. With `CC(C)c1ccc(-c2cnc(-c3cccc(C(=O)O)c3)s2)cc1`, the melting point lay in the range of 218 to 220 °C. For the molecule `Nc1ccccc1OCc1nc(Cl)ccc1Cl`, the melting point was 74 to 75 °C. Molecule `COc1cc(C(=O)C=Cc2ccc(Br)cc2)ccc1OC1CCCCO1` (configuration not stated) had a melting point of 142 to 145 °C. For `Clc1ccc(Cc2ccc(-c3ccccc3)cc2)cc1` the value was 96 °C; for `O=C1CC(c2coc3ccccc23)=Nc2cc3c(cc21)OCO3`, over 315 °C; for `CN1CC=C(c2c[nH]c3ccc(NS(=O)(=O)N(C)C)cc23)CC1`, 207 to 208 °C.

As for `CCOC(=O)N1CCN(C(=O)c2sc(NC(C)=O)nc2CCc2ccc(NC(=N)N)cc2)CC1`, the melting point fell in the range of 180 to 182 °C.

For `CCCOc1c(C)cc(Cl)c2c(=O)c3ccccc3sc12`, the melting point fell in the range of 101 to 103 °C. The value for `Cc1nc(-c2ccc(C(F)(F)F)cc2)sc1C(C)(C)Oc1cccc(COC(C)(C)C(=O)O)c1` was 136 °C; that for `CCOc1ccc2c(S(=O)(=O)c3ccc(OCc4ccccc4)cc3)c(C(C)C)cn2c1` was 153 °C. `CC(C)(C)c1cc(C(C#N)N2CCCCC2)cc(C(C)(C)C)c1O` (configuration not stated) had a melting point of 110 to 111 °C. With `CC(C)(C)C(NC(=O)c1ccc(Cl)cc1)NC(=NS(=O)(=O)c1ccccc1)Nc1cccnc1` (configuration not stated), the melting point lay in the range of 196 to 197 °C. For `N#Cc1cc(C2=NOC(c3cc(Cl)cc(Cl)c3)(C(F)(F)F)C2)ccc1F` (configuration not stated) the value was 136 to 139 °C; for `CC(=O)c1c(C)c(C)c(C(C)=O)c2c1C(=O)c1ccccc1C2=O`, 222 to 224 °C; for `Cc1c(C)c2c(c(C)c1OCc1ccccc1)CC[C@@](C)(CO)O2`, 66 to 69.5 °C. The value for `Cc1c(-c2c(C)c3ccccc3n2S(=O)(=O)c2ccccc2)n(S(=O)(=O)c2ccccc2)c2ccccc12` was 224 °C; that for `C#Cc1cc(C=Cc2cc(C(C)(C)C)cc(C(C)(C)C)c2)cc(C=Cc2cc(C(C)(C)C)cc(C(C)(C)C)c2)c1` was 156 to 157 °C; that for `Fc1ccccc1Cn1c(-c2ccc3c(c2)OCO3)nc2ccccc21` was 149 to 150 °C. `CC1=Cc2ccncc2C(C)(NS(=O)(=O)c2ccc(C)cc2)c2ccccc21` (configuration not stated) showed a melting point of 174 to 177 °C. In turn, `COC(=O)c1ccccc1S(=O)(=O)Cc1c(O)ccc2c1CCCC2=O` returned a melting point of 194 to 196 °C.

In turn, `O=C(NCc1ccc2cc(O)ccc2c1)c1cc(-c2ccc(Cl)cc2)oc1C(F)(F)F` showed a melting point of 189 to 191 °C. The value for `Nc1cc(C(O)=S)cc(Cc2ccccc2)c1Cc1ccccc1` was 256 to 257 °C; that for `CCNC(=O)N1CCN(c2ccccc2C(C)(C)C)CC1` was 196 to 198 °C; that for `Cc1nc2c(cc1C(=O)NC(=N)N)CCCCC2CS(=O)(=O)O` (configuration not stated) was 245 to 247 °C.

In turn, `C#CCOc1ccc(C)cc1S(=O)(=O)NC(=O)Nc1nc(Cl)cc(OC)n1` registered a melting point of 202 to 204 °C. For `CCCc1cccc(-c2nc(C(C)C)n(C)n2)n1` the value was 48.6 °C; for `NS(=O)(=O)c1cc(NC(=O)c2cnn3c(C(F)F)cc(-c4ccc(C(F)(F)F)cc4)nc23)c(Cl)s1`, 298 °C; for `COc1ccc(N)c(CCc2ccccn2)c1`, 77.5 to 78.5 °C.

As for `O=C(c1ccc(F)cc1)C1(c2ccccc2)CCN(Cc2ccccc2)CC1`, the melting point amounted to 148 °C. `Cc1ccccc1NC(=O)c1ccc(C(=O)N2Cc3ccccc3Cc3ccccc32)cc1`: the melting point was in the range of 214 to 216 °C. The molecule `Cc1c(CC2=C(O)CCC2=O)ccc2ccccc12` displayed a melting point of 226 to 228 °C. For `CSc1cnc2ccsc2c1O` the value was 210 to 212 °C; for `CC(C)C1c2ccc(F)cc2CCC1(O)CCO` (configuration not stated), 78 to 80 °C; for `O=C(/C=C\[C@H]1CC1(c1ccccc1)c1ccccc1)NCCCCc1cccnc1`, 115 to 116 °C. In turn, `NC(=O)CCCCn1ccc(NC(N)=NCC(F)(F)F)n1` came in with a melting point of 130 °C.

Molecule `Nc1ccc(OC2(c3ccccc3)CCN(Cc3ccccc3)CC2)cc1` showed a melting point of 124 to 126 °C. For `COc1ccnc(CCc2nc3cc(-c4ccc(S(=O)(=O)N(CCO)CCO)cc4)cnc3[nH]2)c1` the value was 127 to 128 °C; for `Fc1cc(F)c(CN2CCNc3ncc(I)cc32)cc1F`, 154 to 156 °C.

As for `CCCCOc1ccc2cc(O)ccc2c1`, the melting point lay in the range of 100 to 102 °C.

On to `O=c1c(-c2ccccc2)ccc2n1CCc1sccc1-2`, for which the melting point fell in the range of 187 to 189 °C. For `CN1C(=O)c2cscc2Nc2ccccc21` the value was 195 to 198 °C. For `CN(C)C1CCN(C(=O)c2ccc(-c3[nH]nc4c3C(=O)c3c(NC(=O)NN5CCOCC5)cccc3-4)s2)CC1` the value was 185 to 186 °C. For `CC(C)(C)c1cc(C=Cc2ccccc2O)on1` the value was 152 to 155 °C; for `CC(C(=O)O)c1ccc(N)cc1` (configuration not stated), 125 to 129 °C; for `CCc1nc2cnc3ccccc3c2n1CC(C)C`, 72 to 73.5 °C. For the molecule `Cc1c(N)cc([N+](=O)[O-])c(N)c1C`, the melting point worked out at 159 °C.

The molecule `CN(C)c1nc(N)ncc1Cc1ccccc1` yielded a melting point of 181 to 182 °C. Molecule `COC(=O)C(C)(C)Cc1c(SC(C)(C)C)c2cc(OCc3cnccn3)ccc2n1Cc1ccc(Cl)cc1` gave a melting point of 141 to 142 °C. As for `Cc1nc(N)c2nc(CCO)n(NC3CCOCC3)c2c1C`, the melting point lay within 190 to 192 °C. The value for `CC(C)(C)c1ccc(-c2nc(COc3cccc4cc(NS(=O)(=O)C(F)(F)F)ccc34)co2)cc1` was 165 to 167 °C; that for `CCCCCCCOc1cc2c(cc1C(=O)c1ccc(C(=O)O)cc1)C(C)(C)CCC2(C)C` was 154 to 158 °C. Turning to `CNc1nc(-c2cccc(NC(=O)c3ccc(OCc4ccccc4)cc3)c2)c2cc(OC)c(OC)cc2n1`, the melting point fell in the range of 110 to 112 °C. The value for `CC(C)(C)c1nn(C(C)(C)C)c(N)c1C#N` was 78 to 80 °C; that for `Cc1nc2c(Cl)c(NC(=O)c3ccc(-c4ccccc4)cc3)ccc2s1` was 168 to 169 °C. The value for `CCOC(=O)c1ccc(/C=C(\CC)c2ccc3c(c2)C(C)(C)CCC3(C)C)cc1` was 82 to 83 °C; that for `CCOC(=O)Cn1nc(O)c2ccccc21` was 181 to 182 °C; that for `O=S(=O)(Nc1ccc(Cl)nn1)c1ccccc1-c1ccccc1` was 196 to 198 °C. For `Cc1c(CC(=O)NOCc2ccccc2)c2cc(OCc3nc4ccccc4s3)ccc2n1Cc1ccc(Cl)cc1` the value was 183 to 186 °C; for `CCNC(=O)c1sc2ccccc2c1[Si](C)(C)C`, 131 to 134 °C. For `CCc1cc(OC)cc(C(=O)O)c1C(=O)OC`, the melting point was 116 to 118 °C.

With `CCCCc1nc(Sc2ccccc2)c(CO)[nH]1`, the melting point is 45 °C. The value for `N#Cc1cc(N(CC(=O)O)C(=O)c2cccn2-c2ccc(F)cc2)ccc1N1CCCCC1` was 117 to 120 °C; that for `CC(C)(C)c1cc2c(c(C(=O)Nc3ccc(S(=O)(=O)C(F)(F)F)cc3Cl)c1O)CCCC2` was 151 °C. For `CCCCCCCCCCCCCCCCCCS(=O)(=O)c1cc(C(=O)OC)c([N+](=O)[O-])c(C(=O)OC)c1` the value was 98 to 100 °C; for `O=[N+]([O-])c1cccc(-c2nc(O)cc3cccnc23)c1`, 262 to 265 °C; for `CN1CC(=O)C(C#N)=C1N`, 300 °C.

For `O=C(Nc1ccc(C2=CCN(C(=O)Nc3ccc(OCCO)cc3C(F)(F)F)CC2)cc1)Nc1ccccc1F`, the melting point fell in the range of 110 to 112 °C. The value for `CCc1cccc(C)c1CNc1cc(Cl)nc(Cl)c1[N+](=O)[O-]` was 118 to 121 °C. For `CC1C(=NO)CC2(O)C3Cc4ccc(O)c5c4C2(CCN3CC2CC2)C1O5` (configuration not stated) the value was 172 to 173 °C; for `Cc1nn(-c2ccc(F)cc2)cc1C(=O)N(CCCC(=O)O)c1ccc(OCC(C)(C)C)c(C#N)c1`, 178 to 180 °C.

As a reminder, the melting point is the temperature of the solid-liquid transition.
